ChEMBL document CHEMBL4152293, “Synthesis and biological evaluation of podophyllotoxin derivatives as selective antitumor agents” (Eur J Med Chem, 2018)

Tests used:
MCF7 = test: Cytotoxicity against human MCF7 cells assessed as growth inhibition after 72 hrs by MTT assay; assay type: functional, cell-based; details: MCF7, 72 h
L02 [1] = test: Cytotoxicity against human L02 cells assessed as growth inhibition after 72 hrs by MTT assay; assay type: cell-based; details: L02, 72 h
L02 [2] = test: Induction of morphological changes in human L02 cells at 10 to 30 nM after 72 hrs by DAPI staining-based fluorescence microscopic method; assay type: cell-based; details: l02, 72 h, 0.03 µM
A549 [3] = test: Induction of apoptosis in human A549 cells assessed as late apoptotic cells at 10 nM after 72 hrs by annexin V-FITC/propidium iodide staining-based flow cytometric method (reference value: 4.1%); assay type: functional
A549 [4] = test: Induction of apoptosis in human A549 cells assessed as early apoptotic cells at 100 nM after 72 hrs by annexin V-FITC/propidium iodide staining-based flow cytometric method (reference value: 3%); assay type: functional
L02 [5] = test: Induction of apoptosis in human L02 cells assessed as early apoptotic cells at 10 nM after 72 hrs by annexin V-FITC/propidium iodide staining-based flow cytometric method (reference value: 2%); assay type: cell-based; details: l02, 72 h, 0.01 µM
[6] = Induction of apoptosis in human L02 cells assessed as viable cells at 10 nM after 72 hrs by annexin V-FITC/propidium iodide staining-based flow cytometric method (reference value: 96.3%); assay type: cell-based; details: read-out: Activity
L02 [7] = test: Induction of apoptosis in human L02 cells assessed as necrotic cells at 100 nM after 72 hrs by annexin V-FITC/propidium iodide staining-based flow cytometric method (reference value: 0%); assay type: cell-based; details: l02, 72 h, 0.1 µM
L02 [8] = test: Induction of apoptosis in human L02 cells assessed as late apoptotic cells at 200 nM after 72 hrs by annexin V-FITC/propidium iodide staining-based flow cytometric method (reference value: 1.6%); assay type: cell-based; details: l02, 72 h, 0.2 µM
A549 [9] = test: Cell cycle arrest in human A549 cells assessed as accumulation at G0/G1 phase at 5 nM after 72 hrs by propidium iodide staining-based flow cytometric method (reference value: 61.29%); assay type: functional
A549 [10] = test: Cell cycle arrest in human A549 cells assessed as accumulation at G0/G1 phase at 10 nM after 72 hrs by propidium iodide staining-based flow cytometric method (reference value: 61.29%); assay type: functional
A549 [11] = test: Cell cycle arrest in human A549 cells assessed as accumulation at G2/M phase at 10 nM after 72 hrs by propidium iodide staining-based flow cytometric method (reference value: 14.23%); assay type: functional
A549 [12] = test: Cell cycle arrest in human A549 cells assessed as accumulation at G0/G1 phase at 100 nM after 72 hrs by propidium iodide staining-based flow cytometric method (reference value: 61.29%); assay type: functional
L02 [13] = test: Cell cycle arrest in human L02 cells assessed as accumulation at G2/M phase at 5 nM after 72 hrs by propidium iodide staining-based flow cytometric method (reference value: 16.88%); assay type: ADME; details: l02, 72 h, 0.005 µM
L02 [14] = test: Cell cycle arrest in human L02 cells assessed as accumulation at G2/M phase at 100 nM after 72 hrs by propidium iodide staining-based flow cytometric method (reference value: 16.88%); assay type: ADME; details: l02, 72 h, 0.1 µM

## COc1cc([C@@H]2c3cc4c(cc3[C@H](OC(=O)CN(C)C(=O)OC(C)(C)C)[C@H]3COC(=O)[C@H]23)OCO4)cc(OC)c1OC
MCF7
  IC50: 0.133 µM
L02 [1]
  IC50: 0.16 µM
L02 [2]
  Activity: Non-Toxic
A549 [3]
  Activity: 8.1%
A549 [4]
  Activity: 84.6%
L02 [5]
  Activity: 4.3%
[6]
  viability at 72 h, 0.01 µM: 94.1%
L02 [7]
  Activity: 0%
L02 [8]
  Activity: 3.1%
A549 [9]
  Activity: 60.2%
A549 [10]
  Activity: 59.2%
A549 [11]
  Activity: 13.54%
A549 [12]
  Activity: 36.73%
L02 [13]
  Activity: 13.77%
L02 [14]
  Activity: 13.78%
